Measured values from ChEMBL document CHEMBL1201862, “PubChem BioAssay data set” (2004).
Calls of active or inactive are those of the source.

Tests used:
HEK293 = experiment: EBV LMP1 TES2 canonical NF-kB signalling blockers – cell-based, HEK293, luciferase, cherry-pick, dose response (AID 588343); format: functional; details: Homo sapiens
[1] = target: T1, Heat shock factor protein 1 (Mus musculus, UniProt P38532); experiment: enhancement of HSF1-driven luciferase signal – cell-based, NIH3T3, luminescence, dose retest, confirmation (AID 435004); format: functional;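 also: stress induced by proteasome inhibitor MG132 added 30 min after compound; luciferase reporter driven by HSF1 response element in NIH3T3 cells; actives raise luminescence as potentiators of the MG132 stress response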
T1 sequence (P38532 whole entry): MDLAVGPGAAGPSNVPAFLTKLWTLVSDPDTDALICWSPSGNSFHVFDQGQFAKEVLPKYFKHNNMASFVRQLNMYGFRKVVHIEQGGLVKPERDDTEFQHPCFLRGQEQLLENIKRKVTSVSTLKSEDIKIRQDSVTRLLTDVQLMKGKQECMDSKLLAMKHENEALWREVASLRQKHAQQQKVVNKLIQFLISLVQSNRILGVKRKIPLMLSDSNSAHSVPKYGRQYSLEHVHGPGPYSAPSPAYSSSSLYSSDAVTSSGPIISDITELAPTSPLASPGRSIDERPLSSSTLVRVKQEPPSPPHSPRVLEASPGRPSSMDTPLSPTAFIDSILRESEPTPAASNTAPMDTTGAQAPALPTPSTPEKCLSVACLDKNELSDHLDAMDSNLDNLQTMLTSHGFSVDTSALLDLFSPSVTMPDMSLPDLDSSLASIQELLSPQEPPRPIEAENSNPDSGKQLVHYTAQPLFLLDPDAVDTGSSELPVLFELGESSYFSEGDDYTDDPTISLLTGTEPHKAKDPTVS

[2] = target: T2, Microphthalmia-associated transcription factor (Homo sapiens, UniProt O75030); experiment: reducers of TRPM1 reporter luminescence, concentration series – cell-based, SK-MEL-5, cherry-picked, set 3, MITF inhibitor project, dose response (AID 493073); format: functional;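 also: SK-MEL-5 melanoma cells with luciferase driven by the MITF target TRPM1 promoter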
T2 sequence (O75030 whole entry): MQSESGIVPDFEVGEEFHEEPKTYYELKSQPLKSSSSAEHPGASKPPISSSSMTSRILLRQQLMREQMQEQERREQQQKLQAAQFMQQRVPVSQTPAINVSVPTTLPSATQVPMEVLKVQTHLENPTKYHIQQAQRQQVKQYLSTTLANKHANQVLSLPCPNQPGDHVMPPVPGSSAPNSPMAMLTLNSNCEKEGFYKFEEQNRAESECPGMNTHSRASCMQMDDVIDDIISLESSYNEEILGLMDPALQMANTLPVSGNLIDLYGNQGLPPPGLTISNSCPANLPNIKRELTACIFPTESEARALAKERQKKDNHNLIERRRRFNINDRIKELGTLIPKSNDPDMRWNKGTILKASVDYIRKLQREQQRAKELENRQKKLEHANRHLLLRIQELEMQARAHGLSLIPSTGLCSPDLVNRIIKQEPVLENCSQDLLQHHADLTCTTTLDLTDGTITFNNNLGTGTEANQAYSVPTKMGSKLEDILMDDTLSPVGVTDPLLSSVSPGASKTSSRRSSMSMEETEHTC

[3] = target: T3, Replicative DNA helicase DnaB (Mycobacterium tuberculosis, UniProt P9WMR3); experiment: DnaB intein splicing inhibitors, dose response, biochemical, cell-free fluorescence (AID 449749); format: functional
T3 sequence (P9WMR3 whole entry): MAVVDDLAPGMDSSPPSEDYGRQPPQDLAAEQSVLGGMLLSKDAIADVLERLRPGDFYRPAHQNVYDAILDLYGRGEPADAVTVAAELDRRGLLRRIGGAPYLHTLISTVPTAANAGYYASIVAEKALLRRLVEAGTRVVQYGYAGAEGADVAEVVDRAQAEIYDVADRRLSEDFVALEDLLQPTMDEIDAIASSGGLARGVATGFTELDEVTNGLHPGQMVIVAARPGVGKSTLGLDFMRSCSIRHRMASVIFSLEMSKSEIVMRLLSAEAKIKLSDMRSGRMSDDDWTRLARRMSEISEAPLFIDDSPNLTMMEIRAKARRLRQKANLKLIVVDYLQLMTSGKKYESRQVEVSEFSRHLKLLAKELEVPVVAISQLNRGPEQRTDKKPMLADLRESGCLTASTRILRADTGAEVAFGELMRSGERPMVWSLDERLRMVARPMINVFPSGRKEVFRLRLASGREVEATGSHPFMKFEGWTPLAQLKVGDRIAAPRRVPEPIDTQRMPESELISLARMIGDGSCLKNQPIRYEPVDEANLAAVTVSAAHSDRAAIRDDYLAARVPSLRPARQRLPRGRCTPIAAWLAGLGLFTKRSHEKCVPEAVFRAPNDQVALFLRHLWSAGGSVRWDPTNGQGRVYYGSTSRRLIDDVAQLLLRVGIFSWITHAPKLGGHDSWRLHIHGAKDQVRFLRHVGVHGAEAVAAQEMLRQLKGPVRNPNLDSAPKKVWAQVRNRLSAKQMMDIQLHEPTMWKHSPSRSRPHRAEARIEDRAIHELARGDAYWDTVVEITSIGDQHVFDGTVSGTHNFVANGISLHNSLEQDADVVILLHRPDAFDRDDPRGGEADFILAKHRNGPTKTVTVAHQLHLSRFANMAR

Protein RecA = target: T4, Protein RecA (Mycobacterium tuberculosis, UniProt P9WHJ3); experiment: Fluorescence Cell-Free Homogeneous Dose Retest to Identify Inhibitors of RecA-Intein Splicing Activity. [Related pubchem assays (depositor defined):AID2097, AID2223, AID489010, AID492950]; format: functional
T4 sequence (P9WHJ3 whole entry): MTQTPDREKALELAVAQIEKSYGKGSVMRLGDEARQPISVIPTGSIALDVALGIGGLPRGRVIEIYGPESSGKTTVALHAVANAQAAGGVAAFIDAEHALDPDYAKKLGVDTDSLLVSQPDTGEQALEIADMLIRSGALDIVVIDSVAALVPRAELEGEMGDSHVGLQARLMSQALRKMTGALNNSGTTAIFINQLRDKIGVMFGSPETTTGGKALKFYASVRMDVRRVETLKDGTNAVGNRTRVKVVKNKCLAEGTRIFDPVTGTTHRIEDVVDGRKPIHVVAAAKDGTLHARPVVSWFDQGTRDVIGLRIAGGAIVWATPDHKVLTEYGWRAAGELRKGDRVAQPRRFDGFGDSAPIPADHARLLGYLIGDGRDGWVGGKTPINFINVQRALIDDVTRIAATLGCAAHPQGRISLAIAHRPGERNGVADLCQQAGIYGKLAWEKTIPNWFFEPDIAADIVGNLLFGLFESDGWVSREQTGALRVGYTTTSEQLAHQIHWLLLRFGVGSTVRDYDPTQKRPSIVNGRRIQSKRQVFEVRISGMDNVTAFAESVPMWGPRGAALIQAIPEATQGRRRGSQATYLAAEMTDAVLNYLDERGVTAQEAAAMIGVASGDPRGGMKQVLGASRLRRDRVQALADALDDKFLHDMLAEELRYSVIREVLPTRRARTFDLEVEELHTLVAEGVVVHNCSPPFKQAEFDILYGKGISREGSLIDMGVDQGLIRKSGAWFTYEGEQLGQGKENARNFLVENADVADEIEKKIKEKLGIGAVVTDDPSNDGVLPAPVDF

[4] = Trypanosoma cruzi growth suppression in host cells – NIH3T3 host cells, beta-gal luminescence, confirmation (AID 2044); format: functional, cell-based;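 also: intracellular parasites grown in NIH/3T3 mouse fibroblasts as host cells; luminescent beta-galactosidase reporter signal from transgenic T. cruzi replicating inside host cells; inhibitors lower the luminescence signal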
[5] = NIH3T3 cell viability loss – ATP luminescence, mouse fibroblasts, counter-screen, dose response (AID 2010); format: functional, cell-based;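 also: cells exposed to compound for about 90 hours before reading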
[6] = reduction of Shn3 3'UTR-driven luciferase in osteoblasts – cell-based, Clone20 osteoblasts, firefly luciferase, cherry-picked, dose response (AID 624132); format: functional;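 also: firefly luciferase luminescence from reporter carrying the Shn3 3'UTR in osteoblasts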
[7] = loss of viability in HepG2 cells – cell-based, CellTiter-Glo, cherry-picked, cytotoxicity control for Shn3 inhibitor project, dose response (AID 624134); format: functional
[8] = non-specific 3'UTR reporter inhibition in Clone20-Shn3RL – cell-based, Renilla luciferase, cherry-picked, counter-screen for Shn3 inhibitor project, dose response (AID 624133); format: functional
Leucine aminopeptidase = target: T5, Leucine aminopeptidase (Plasmodium falciparum 3D7, UniProt Q8IL11); experiment: P. falciparum M17LAP inhibitors, primary screen, biochemical, fluorogenic H-Leu-NHMec substrate, 1536-well (AID 1619); format: functional
T5 sequence (Q8IL11 whole entry): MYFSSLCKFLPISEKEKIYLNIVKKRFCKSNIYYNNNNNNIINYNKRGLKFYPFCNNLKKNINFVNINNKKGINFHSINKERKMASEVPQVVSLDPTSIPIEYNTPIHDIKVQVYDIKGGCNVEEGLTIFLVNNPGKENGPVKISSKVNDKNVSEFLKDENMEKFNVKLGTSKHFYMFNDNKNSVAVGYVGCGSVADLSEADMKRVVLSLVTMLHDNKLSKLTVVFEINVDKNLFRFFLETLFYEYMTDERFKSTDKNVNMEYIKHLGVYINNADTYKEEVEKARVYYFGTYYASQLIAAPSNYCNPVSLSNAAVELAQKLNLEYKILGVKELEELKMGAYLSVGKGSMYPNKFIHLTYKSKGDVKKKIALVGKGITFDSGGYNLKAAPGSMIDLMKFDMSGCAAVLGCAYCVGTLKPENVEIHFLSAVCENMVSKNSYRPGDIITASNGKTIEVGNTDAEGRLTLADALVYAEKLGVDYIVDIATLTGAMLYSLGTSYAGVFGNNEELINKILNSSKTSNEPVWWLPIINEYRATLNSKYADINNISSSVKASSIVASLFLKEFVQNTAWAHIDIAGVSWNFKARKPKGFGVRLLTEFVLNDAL

[9] = Luminescence Cell-Based Dose Retest to Confirm Inhibitors of Cancer Stem Cells. [Related pubchem assays (depositor defined):AID2717, AID2721]; format: functional; details: Homo sapiens
[10] = target: Heat shock protein HSP 90-alpha (Homo sapiens, UniProt P07900); format: functional, organism-based
SN12K1 = experiment: cells; format: functional; details: Homo sapiens
P388 = experiment: cells; format: functional; details: Mus musculus
P388/ADR = experiment: cells; format: functional; details: Mus musculus
[11] = blockers of HIV-1 envelope-mediated cell-cell fusion – cherry-pick, dose response (AID 652057); format: functional, cell-based
[12] = blockers of HIV-1 ZM109 envelope-driven cell-cell fusion – HeLa effector, CEM target cells, luciferase, cherry-pick, dose response (AID 652058); format: functional, cell-based;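 also: luciferase signal from HIV-1 Env mediated cell-cell fusion of effector and target cells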
[13] = HIV-1 AD8 envelope cell-cell fusion blockers – cherry-pick, dose response (AID 652062); format: functional, cell-based;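 also: luciferase signal from cell-cell fusion driven by HIV-1 clade B AD8 Env; potency is for inhibitors of fusion seen as a drop in luminescence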

Compound: O=c1c2cnn(-c3ccccc3)c2nc(-c2cccs2)n1-c1ccc(Br)cc1
- AC50 (HEK293): 1.77 µM (active)

Compound: O=C(CCl)Nc1cccc(Oc2ccccc2)c1
- EC50 [1]: > 260 µM (inactive)
- AC50 [2]: 8.07 µM (active)
- AC50 [3]: 11.9 µM (active)
- EC50 (Protein RecA): 4.28 µM (active)

Compound: Oc1nc(Nc2nc3ccccc3o2)nc2c1CCCC2
- EC50 [4]: 1.9 µM (active)
- EC50 [5]: 3.87 µM (active)
- AC50 (HEK293): 2.05 µM (active)
- AC50 [6]: 7.71 µM (active)
- AC50 [7]: 9.63 µM (active)
- AC50 [8]: 5.26 µM (active)

Compound: O=c1[nH]c2ccc(S(=O)(=O)N3CCN(Cc4ccccc4)CC3)cc2[nH]c1=O
- IC50 (Leucine aminopeptidase): 2.62 µM (active)

Compound: O=S(=O)(Nc1nc2ccccc2nc1NCCN1CCOCC1)c1cccc(Cl)c1
- IC50 (Leucine aminopeptidase): 25.9 µM (active)

Compound: Cc1ccccc1NC(=O)C(Cl)=C(Cl)Cl
- AC50 [9]: 6.73 µM (active)
- AC50 (HEK293): 22.1 µM (active)

Compound: COc1ccc(Cc2nnc(NS(=O)(=O)Cc3ccccc3)s2)cc1
- IC50 (Leucine aminopeptidase): 6.34 µM (active)

Compound: c1ccc(C(=NNc2nc3ccccc3s2)c2ccccn2)cc1
- AC50 (HEK293): 3.05 µM (active)
- AC50 [10]: 16.4 µM (active)

Compound: Nc1cccc2c1C1=NNC(=O)CC1C2 (stereo not given)
- GI50 (SN12K1): > 100 µM (inactive)
- GI50 (P388): > 100 µM (inactive)

Compound: c1ccc2c(c1)OCCc1cn[nH]c1-2
- GI50 (P388/ADR): > 100 µM (inactive)
- GI50 (SN12K1): > 100 µM (inactive)
- GI50 (P388): > 100 µM (inactive)

Compound: CSc1nc(CO)c(CO)n1C
- GI50 (P388/ADR): > 100 µM (inactive)
- GI50 (SN12K1): > 100 µM (inactive)
- GI50 (P388): > 100 µM (inactive)

Compound: CSc1nc(NC2OC(CO)C(O)C(O)C2O)c(N)c(=O)[nH]1 (stereo not given)
- GI50 (P388/ADR): > 100 µM (inactive)
- GI50 (SN12K1): > 100 µM (inactive)
- GI50 (P388): > 100 µM (inactive)

Compound: CNC(=O)SCC(N)C(=O)O (stereo not given)
- GI50 (P388/ADR): 16.8 µM (inactive)
- GI50 (SN12K1): 62.2 µM (inactive)
- GI50 (P388): 16.5 µM (inactive)

Compound: CC(=O)Oc1cc2c(cc1OC(C)=O)OCC(c1ccccc1)C2 (stereo not given)
- GI50 (P388/ADR): 4.08 µM (inactive)
- GI50 (SN12K1): 13.6 µM (inactive)
- GI50 (P388): 4.16 µM (inactive)

Compound: COc1ccc2c(c1O)-c1cc(O)cc3c1[C@@H](C2)N(C)CC3
- GI50 (P388/ADR): 40.2 µM (inactive)
- GI50 (SN12K1): 63.4 µM (inactive)
- GI50 (P388): 9.1 µM (inactive)

Compound: COc1ccc(CNC(=O)N(C)C[C@H]2OCc3ccccc3-c3ccccc3C(=O)N([C@H](C)CO)C[C@@H]2C)cc1
- AC50 [11]: 0.826 µM (active)
- AC50 [12]: 1.16 µM (active)
- AC50 [13]: 3.51 µM (active)

Compound: C[C@H](CO)N1C[C@H](C)[C@H](CN(C)S(=O)(=O)c2ccccc2)Oc2ncc(/C=C/c3ccccc3)cc2C1=O
- AC50 [12]: 3.51 µM (active)

Compound: C[C@H](CO)N1C[C@H](C)[C@H](CN(C)S(=O)(=O)c2ccccc2)Oc2ccc(NS(=O)(=O)c3cccs3)cc2CC1=O
- AC50 [11]: 0.557 µM (active)
- AC50 [12]: 2.13 µM (active)
- AC50 [13]: 12.6 µM (active)

Compound: C[C@H](CO)N1C[C@H](C)[C@H](CN(C)CC2CC2)Oc2ccc(NC(=O)Nc3ccc4c(c3)OCO4)cc2CC1=O
- AC50 [11]: 4.41 µM (active)
- AC50 [13]: 20.5 µM (active)

Compound: COc1cccc(-c2cnc3c(c2)C(=O)N([C@H](C)CO)C[C@H](C)[C@H](CN(C)C(=O)Nc2cccc4ccccc24)O3)c1
- AC50 [11]: < 0.26 µM (active)
- AC50 [12]: 0.284 µM (active)
- AC50 [13]: 0.407 µM (active)
